Consider eight compounds from ChEMBL document CHEMBL5625175, “Quinazoline-based VEGFR-2 inhibitors as potential anti-angiogenic agents: A contemporary perspective of SAR and molecular docking studies” (Eur J Med Chem, 2023).

What is called inhibition is how much of the control response was suppressed. For orientation: IC50 means the point on the concentration scale where inhibition reaches its midpoint.

The target of assay [1] is Receptor-type tyrosine-protein kinase FLT3 (Homo sapiens) (UniProt P36888). The assay is described as follows: Inhibition of FLT-3 (unknown origin) at 10 uM relative to control.
Assay [2] relates to HepG2. The assay can be described thus: Antitumor activity against human HepG2 cells xenografted in athymic nu/nu mouse assessed as tumor growth inhibition at 100 mg/kg, ip administered once daily relative to control. The assay is classed as functional. Also noted: scale not given: the % may be the effect or the level left. In general terms: In xenograft studies the graft and the host belong to different species.

Assay [3] deals with T1, Vascular endothelial growth factor receptor 2 (Homo sapiens, UniProt P35968). The assay can be described thus: Inhibition of VEGF-induced human VEGFR2 autophosphorylation expressed in HUVEC cells measured after 2 hrs by chemiluminescence assay. The assay is classed as cell-based.
In assay [4] the target is T2, Vascular endothelial growth factor receptor 1 (Homo sapiens, UniProt P17948). The assay can be described thus: Inhibition of VEGFR-1 (unknown origin) at 10 uM relative to control.
Assay [5] deals with T2, Vascular endothelial growth factor receptor 1. The assay is described as follows: Inhibition of VEGFR-1 (unknown origin) by HTRF method.
Assay [6] addresses T1, Vascular endothelial growth factor receptor 2. The assay can be described thus: Inhibition of N-terminal polyhistidine human recombinant KDR using poly-(Glu4-Tyr) peptide as substrate incubated for 60 mins by DELFIA/time-resolved fluorometric analysis.
Assay [7] concerns A549. The assay is described as follows: Antitumor activity against human A549 cells assessed as reduction in cell viability incubated for 48 hrs by CCK-8 assay. The assay is classed as functional, cell-based. The note with it: A549, 48 h.
In assay [8] the test system is MCF7. The assay is described as follows: Antitumor activity against human MCF7 cells assessed as reduction in cell viability incubated for 48 hrs by CCK-8 assay. The format is functional, cell-based. The note with it: MCF7, 48 h. Background: Tetrazolium dyes change colour on reduction, which living cells bring about.
For assay [9], the system named is HT-29. The assay is described as follows: Antitumor activity against human HT-29 cells assessed as reduction in cell viability incubated for 48 hrs by CCK-8 assay. The assay is classed as functional, cell-based. The note with it: HT-29, 48 h.
In assay [10] the target is T2, Vascular endothelial growth factor receptor 1. The assay can be described thus: Inhibition of VEGFR1 (unknown origin) by FRET based Z-LYTE kinase assay.
Assay [11] deals with T1, Vascular endothelial growth factor receptor 2. The assay is described as follows: Inhibition of VEGFR-2 (unknown origin) using poly-Glu-Ala-Tyr-biotin as substrate pre-incubated for 10 mins followed by substrate addition and measured after 30 mins by HTRF method. For orientation: In TR-FRET formats the signal depends on donor and acceptor labels being close together.
For assay [12], the target named is Epidermal growth factor receptor (Homo sapiens, UniProt P00533). The assay is described as follows: Inhibition of EGFR (unknown origin) using TK as substrate incubated for 60 mins by HTRF method.
In assay [13] the test system is HepG2. The assay can be described thus: Antitumor activity against human HepG2 cells assessed as reduction in cell growth incubated for 48 hrs by MTT assay. The format is functional, cell-based. The note with it: HepG2, 48 h.
The test system of assay [14] is MCF7. The assay is described as follows: Antitumor activity against human MCF7 cells assessed as reduction in cell growth incubated for 48 hrs by MTT assay. The assay is classed as functional, cell-based. The note with it: MCF7, 48 h.
In assay [15] the test system is PC-3. The assay is described as follows: Antitumor activity against human PC-3 cells assessed as reduction in cell growth incubated for 48 hrs by MTT assay. The note with it: PC-3, 48 h. The assay is classed as functional, cell-based.

T1 sequence (P35968 whole entry): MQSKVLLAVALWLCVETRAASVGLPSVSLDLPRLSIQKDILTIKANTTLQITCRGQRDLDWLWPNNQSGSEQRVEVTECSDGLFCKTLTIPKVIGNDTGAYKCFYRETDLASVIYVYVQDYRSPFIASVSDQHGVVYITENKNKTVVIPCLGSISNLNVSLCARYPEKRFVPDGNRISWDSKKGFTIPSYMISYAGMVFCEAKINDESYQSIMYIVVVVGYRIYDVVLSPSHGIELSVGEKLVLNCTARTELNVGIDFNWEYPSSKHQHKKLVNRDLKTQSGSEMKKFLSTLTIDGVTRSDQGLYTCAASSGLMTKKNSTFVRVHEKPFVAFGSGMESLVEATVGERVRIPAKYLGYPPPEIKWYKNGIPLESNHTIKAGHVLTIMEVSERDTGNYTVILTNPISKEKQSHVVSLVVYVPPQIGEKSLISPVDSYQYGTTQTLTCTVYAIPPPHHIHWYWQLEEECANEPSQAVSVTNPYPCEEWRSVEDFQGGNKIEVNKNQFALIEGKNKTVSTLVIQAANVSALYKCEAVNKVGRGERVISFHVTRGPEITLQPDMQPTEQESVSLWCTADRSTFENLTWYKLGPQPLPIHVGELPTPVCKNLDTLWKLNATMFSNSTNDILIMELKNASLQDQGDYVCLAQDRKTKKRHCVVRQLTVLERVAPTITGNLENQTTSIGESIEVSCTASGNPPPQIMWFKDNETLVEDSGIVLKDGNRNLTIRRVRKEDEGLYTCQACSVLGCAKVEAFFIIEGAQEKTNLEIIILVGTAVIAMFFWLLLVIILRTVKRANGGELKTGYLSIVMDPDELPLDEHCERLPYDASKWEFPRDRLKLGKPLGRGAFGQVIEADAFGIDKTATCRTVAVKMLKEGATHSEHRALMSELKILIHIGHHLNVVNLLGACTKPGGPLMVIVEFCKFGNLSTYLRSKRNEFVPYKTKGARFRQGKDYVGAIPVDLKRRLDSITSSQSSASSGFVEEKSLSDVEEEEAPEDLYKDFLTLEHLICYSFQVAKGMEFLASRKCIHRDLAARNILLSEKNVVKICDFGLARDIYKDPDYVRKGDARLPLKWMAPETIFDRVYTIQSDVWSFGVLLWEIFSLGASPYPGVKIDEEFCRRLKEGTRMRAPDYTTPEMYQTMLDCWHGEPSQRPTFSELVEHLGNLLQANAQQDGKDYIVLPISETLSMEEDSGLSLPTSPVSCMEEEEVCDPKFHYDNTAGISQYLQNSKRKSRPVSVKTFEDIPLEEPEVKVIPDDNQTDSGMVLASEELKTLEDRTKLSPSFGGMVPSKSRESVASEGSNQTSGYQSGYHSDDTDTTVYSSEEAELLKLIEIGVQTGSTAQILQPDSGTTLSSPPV
T2 sequence (P17948 whole entry): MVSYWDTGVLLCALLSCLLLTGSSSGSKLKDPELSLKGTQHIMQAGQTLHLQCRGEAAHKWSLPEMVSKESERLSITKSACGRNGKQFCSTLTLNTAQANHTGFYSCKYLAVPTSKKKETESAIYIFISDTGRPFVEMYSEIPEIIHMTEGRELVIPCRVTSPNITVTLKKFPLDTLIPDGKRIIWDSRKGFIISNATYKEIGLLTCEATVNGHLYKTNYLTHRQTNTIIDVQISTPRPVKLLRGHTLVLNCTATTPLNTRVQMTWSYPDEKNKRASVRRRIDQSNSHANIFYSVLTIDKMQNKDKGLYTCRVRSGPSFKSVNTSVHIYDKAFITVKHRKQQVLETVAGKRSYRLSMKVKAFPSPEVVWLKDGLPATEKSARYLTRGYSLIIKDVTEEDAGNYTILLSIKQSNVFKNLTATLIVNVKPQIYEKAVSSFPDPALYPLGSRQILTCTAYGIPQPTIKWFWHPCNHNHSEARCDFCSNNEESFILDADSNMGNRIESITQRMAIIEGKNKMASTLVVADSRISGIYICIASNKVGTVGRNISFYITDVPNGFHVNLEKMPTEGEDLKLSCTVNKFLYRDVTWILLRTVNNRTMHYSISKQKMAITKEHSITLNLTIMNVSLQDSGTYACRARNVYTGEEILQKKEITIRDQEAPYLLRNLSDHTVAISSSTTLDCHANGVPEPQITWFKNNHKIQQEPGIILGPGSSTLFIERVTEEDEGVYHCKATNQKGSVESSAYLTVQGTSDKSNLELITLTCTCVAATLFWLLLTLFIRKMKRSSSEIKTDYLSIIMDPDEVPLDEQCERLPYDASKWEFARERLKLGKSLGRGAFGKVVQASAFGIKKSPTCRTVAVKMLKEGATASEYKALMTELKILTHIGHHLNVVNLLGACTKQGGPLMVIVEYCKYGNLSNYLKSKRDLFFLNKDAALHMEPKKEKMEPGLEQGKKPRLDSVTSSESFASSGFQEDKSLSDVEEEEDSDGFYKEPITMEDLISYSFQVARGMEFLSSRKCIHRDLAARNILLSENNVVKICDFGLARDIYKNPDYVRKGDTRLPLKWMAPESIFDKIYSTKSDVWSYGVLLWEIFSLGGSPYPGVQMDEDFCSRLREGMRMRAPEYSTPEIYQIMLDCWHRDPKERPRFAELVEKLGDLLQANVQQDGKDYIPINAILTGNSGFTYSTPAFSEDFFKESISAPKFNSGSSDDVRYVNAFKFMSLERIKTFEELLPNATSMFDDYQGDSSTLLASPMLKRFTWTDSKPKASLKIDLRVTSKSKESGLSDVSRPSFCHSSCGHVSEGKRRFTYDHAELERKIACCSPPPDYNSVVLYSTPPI
Chain of Receptor-type tyrosine-protein kinase FLT3 (Homo sapiens) (P36888 whole entry): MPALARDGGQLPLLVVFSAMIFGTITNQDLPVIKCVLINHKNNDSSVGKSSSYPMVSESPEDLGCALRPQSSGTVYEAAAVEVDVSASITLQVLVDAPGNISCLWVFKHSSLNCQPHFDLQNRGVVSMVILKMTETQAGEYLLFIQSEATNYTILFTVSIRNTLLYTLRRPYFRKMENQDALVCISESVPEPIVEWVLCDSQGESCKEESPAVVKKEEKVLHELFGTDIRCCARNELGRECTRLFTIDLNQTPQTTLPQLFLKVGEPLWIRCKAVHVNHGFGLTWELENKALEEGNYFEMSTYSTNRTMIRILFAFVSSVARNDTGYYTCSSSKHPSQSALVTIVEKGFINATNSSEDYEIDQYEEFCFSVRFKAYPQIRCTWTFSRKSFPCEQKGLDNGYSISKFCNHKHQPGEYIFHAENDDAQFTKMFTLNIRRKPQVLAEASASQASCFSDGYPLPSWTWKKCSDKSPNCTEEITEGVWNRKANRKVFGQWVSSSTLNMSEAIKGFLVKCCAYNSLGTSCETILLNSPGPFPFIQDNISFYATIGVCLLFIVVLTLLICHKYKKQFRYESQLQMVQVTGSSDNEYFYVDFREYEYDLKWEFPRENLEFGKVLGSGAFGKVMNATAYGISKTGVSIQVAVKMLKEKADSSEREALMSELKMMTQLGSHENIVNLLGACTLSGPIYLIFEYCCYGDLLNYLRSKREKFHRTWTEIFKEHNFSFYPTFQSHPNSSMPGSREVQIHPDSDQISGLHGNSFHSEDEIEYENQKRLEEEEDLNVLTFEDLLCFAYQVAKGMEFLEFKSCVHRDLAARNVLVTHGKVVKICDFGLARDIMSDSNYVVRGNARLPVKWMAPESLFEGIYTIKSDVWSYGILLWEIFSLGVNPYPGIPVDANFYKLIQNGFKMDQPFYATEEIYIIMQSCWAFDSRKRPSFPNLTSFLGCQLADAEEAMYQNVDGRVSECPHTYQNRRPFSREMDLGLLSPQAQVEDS
Chain of Epidermal growth factor receptor (P00533 whole entry): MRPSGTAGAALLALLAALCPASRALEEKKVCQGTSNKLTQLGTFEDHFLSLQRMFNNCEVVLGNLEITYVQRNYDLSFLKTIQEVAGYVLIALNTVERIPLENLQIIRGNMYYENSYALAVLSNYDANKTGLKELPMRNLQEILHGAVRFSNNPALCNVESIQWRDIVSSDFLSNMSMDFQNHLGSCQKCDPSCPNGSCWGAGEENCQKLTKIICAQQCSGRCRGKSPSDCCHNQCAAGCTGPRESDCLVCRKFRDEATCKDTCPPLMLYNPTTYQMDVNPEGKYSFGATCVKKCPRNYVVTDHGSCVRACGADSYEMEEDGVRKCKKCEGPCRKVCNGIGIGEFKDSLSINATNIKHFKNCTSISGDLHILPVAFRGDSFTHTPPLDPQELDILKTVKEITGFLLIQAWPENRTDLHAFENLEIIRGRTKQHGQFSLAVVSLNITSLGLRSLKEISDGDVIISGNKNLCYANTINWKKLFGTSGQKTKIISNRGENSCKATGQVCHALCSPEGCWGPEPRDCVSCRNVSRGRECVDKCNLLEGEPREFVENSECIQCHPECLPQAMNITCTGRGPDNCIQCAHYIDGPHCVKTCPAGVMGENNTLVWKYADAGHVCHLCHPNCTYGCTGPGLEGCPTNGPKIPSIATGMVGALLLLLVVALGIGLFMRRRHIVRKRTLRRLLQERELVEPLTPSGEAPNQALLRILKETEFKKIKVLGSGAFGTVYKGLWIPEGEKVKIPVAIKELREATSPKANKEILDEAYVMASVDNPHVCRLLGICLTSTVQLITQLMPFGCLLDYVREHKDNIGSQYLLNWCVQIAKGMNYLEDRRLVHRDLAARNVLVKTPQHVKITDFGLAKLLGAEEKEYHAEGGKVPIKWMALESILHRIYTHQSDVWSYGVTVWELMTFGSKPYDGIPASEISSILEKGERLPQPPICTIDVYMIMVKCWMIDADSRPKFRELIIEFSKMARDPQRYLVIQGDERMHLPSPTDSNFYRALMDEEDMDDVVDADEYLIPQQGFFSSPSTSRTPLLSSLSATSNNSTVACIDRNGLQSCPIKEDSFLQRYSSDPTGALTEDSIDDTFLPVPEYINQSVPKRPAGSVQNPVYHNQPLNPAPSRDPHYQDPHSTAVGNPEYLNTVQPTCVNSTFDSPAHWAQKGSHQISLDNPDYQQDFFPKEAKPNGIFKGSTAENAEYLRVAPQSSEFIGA

Take `COc1cc2ncnc(Sc3nnc(C)s3)c2cc1OC`: in assay [1], the inhibition stood at 91%. Besides, the Activity in assay [2] stood at 60%. In [3], this compound yielded an IC50 of 11.9 µM.
The compound `COc1cc2ncnc(Nc3ccc(-c4noc(Cc5cc6ccccc6[nH]5)n4)cc3)c2cc1OC` had an inhibition in assay [4] of 91%. For the same compound, half-maximal inhibition in assay [5] (IC50) required 0.017 µM.
`O=[N+]([O-])c1ccc(COc2ncnc3ccc([N+](=O)[O-])cc23)cc1`: in assay [6], the concentration for half-maximal inhibition (IC50) amounted to 0.00471 µM.
For `Cc1ccc(Nc2ncnc3cc(NC(=O)Nc4ccc(Cl)c(C(F)(F)F)c4)ccc23)cc1`, the concentration for half-maximal inhibition (IC50) in assay [7] was 1.76 µM; in [8] it was 2.49 µM; in [9], 0.81 µM.
In turn, `CNC(=O)c1nc(Nc2ccc(NC(=O)Nc3cccc(C)c3)cc2)c2ccccc2n1` registered a concentration for half-maximal inhibition (IC50) in assay [10] of 0.0121 µM.
`COc1cc2ncnc(Nc3ccncc3C(=O)NCc3cccs3)c2cc1OC` yielded a half-maximal inhibitory concentration (IC50) in [11] of 0.017 µM.
As to `CC(C)c1ccc(Nc2ncnc3cc(NC(=O)Nc4ccccc4)ccc23)cc1`, the IC50 in [12] is 0.479 µM.
As to `O=C(Nc1ccc(Oc2nc(Cl)nc3ccccc23)cc1)c1cccnc1`, the IC50 in assay [13] amounted to 24.1 µM; in assay [14] it was 33.4 µM; in assay [15], 40.9 µM.
